For orientation: mass density means mass per unit of volume. The refractive index is a measure of how strongly the sample bends light.

Numbers after ± are expanded uncertainties.

Among the data in the NIST ThermoML archive (doi:10.1016/j.jct.2004.09.022) are mass density, Normal boiling temperature and refractive index values, retold here.

The conditions of series [1]: Liquid; for mass density: 293.15 K, 101.33 kPa.
The nature of series [2]: refractive index (Na D-line) (dimensionless). Particulars: 293.15 K; 101.33 kPa; Liquid; Standard Abbe refractometry.

In the case of `CC(C)CCO` [3-methylbutan-1-ol], the mass density in series [1] (Vibrating tube method) came to 808.4 ± 2.2 kg/m3. In addition, in series [1] (Fisher boiling point apparatus), the Normal boiling temperature was determined as 131.40 ± 0.2 °C. Moreover, the refractive index in series [2] is 1.4075 ± 0.0008.
In the case of `O` [water], in series [1], the mass density is recorded as 999.9 ± 0.6 kg/m3 and the Normal boiling temperature was found to be 100.1 ± 0.2 °C. Besides, the refractive index in series [2] was found to be 1.3324 ± 0.0008.
